Source: patent US20260001928A1 (CORTERIA PHARMACEUTICALS, priority 2022, published 2026)
*1 amine or outer side, *2 acyl side, *3 side chain or, on linkers, in order; H or OH if unused. Where a SMILES comes first, the peptide text is derived from it. Side-chain parts run from the residue outwards. [ ]: non-standard residue; d: D form. The star is where a group is joined. C16 diacid = O=C(O)CCCCCCCCCCCCCCC(=O)*; γGlu = O=C(O)[C@H](CCC(=O)[*:2])N[*:1]; NMeV = CN[C@H](C(=O)O)C(C)C; Api = NC1(C(=O)O)CCNCC1; Hexanoyl = CCCCCC(=O)*; Aib = CC(C)(N)C(=O)O

Assays:
[1] = target: T1, CFR1R receptor (Homo sapiens, UniProt P34998); experiment: Activity at anti-target CFR1R receptor, cAMP assay in CRF1R-overexpression CHO-K1 cells; type: cell-based; details: 100% = Sauvagine at 100 nM; for EC50: cAMP
T1 construct: host or cells: CHO-K1 (clone 2)
T1 sequence (P34998 24-415): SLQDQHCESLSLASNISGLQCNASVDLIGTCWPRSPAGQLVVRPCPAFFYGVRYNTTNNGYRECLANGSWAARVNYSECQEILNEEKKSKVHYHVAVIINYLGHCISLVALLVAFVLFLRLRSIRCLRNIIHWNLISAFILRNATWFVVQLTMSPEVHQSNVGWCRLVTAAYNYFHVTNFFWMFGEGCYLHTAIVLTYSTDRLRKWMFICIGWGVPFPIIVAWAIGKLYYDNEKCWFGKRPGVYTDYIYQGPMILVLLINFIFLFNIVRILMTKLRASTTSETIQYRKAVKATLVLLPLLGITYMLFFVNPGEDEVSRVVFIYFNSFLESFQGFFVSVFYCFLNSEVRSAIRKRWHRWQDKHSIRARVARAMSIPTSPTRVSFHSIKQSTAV
How it was run: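 The method mirrors that used with TeloHAEC cells. Here, thawed clone 2 cells seeded at 4000 cells/well are tested, and 100 nM Sauvagine sets the top of the activation scale.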

[2] = target: T2, human CRF2a receptor (Homo sapiens, UniProt Q13324); experiment: Activity at human CRF2a receptor, cAMP functional assay in TeloHEAC cells; type: cell-based; details: TeloHEAC cells stably expressing human CRF2a receptor, relative to urocortin 2 (100 nM = 100%)
T2 construct: expressed in transfected cells; host or cells: TeloHEAC cells
T2 sequence (Q13324 1-411): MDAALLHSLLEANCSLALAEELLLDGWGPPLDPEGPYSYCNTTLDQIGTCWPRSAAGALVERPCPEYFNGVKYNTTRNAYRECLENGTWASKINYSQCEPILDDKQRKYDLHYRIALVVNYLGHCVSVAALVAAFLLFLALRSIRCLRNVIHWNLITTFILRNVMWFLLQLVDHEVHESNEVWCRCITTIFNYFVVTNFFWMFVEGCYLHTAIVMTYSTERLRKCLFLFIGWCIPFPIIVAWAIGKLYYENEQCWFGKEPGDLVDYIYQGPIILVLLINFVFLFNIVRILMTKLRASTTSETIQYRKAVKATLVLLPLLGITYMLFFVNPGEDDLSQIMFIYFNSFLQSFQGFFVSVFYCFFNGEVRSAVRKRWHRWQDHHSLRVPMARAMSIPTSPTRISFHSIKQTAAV
How it was run: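 TeloHEAC cells stably expressing human CRF2a (10000 cells/well) were treated with 16-point 1:2 compound dilutions in HBSS/20 mM HEPES with IBMX for 30 min at 37° C. cAMP was read by HTRF (665/620 nm ratio). EC50 was the concentration giving 50% activation, with 100 nM urocortin 2 set as 100%.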

| SMILES | Emax (% I) [1] [% I] | EC50 [1] [nM] | EC50 [2] [nM] |
| --- | --- | --- | --- |
| CCCCCC(=O)N[C@H](C(=O)N[C@@H](CC(C)C)C(=O)N[C@@H](CO)C(=O)N[C@@H](CC(C)C)C(=O)N[C@@H](CC(=O)O)C(=O)N[C@@H](C(=O)N1CCC[C@H]1C(=O)N[C@H](C(=O)N[C@@H](CCCCN)C(=O)N[C@@H](CC(C)C)C(=O)N[C@@H](CCCCNC(=O)CC[C@H](NC(=O)CCCCCCCCCCCCCCC(=O)O)C(=O)O)C(=O)N[C@@H](CCCCN)C(=O)N[C@H](C(=O)N[C@@H](CC(C)C)C(=O)N[C@@H](CC(C)C)C(=O)N[C@@H](CCC(=O)O)C(=O)N[C@@H](CCC(N)=O)C(=O)N[C@@H](CCC(=O)O)C(=O)N[C@@H](CCCCN)C(=O)N[C@@H](CCC(N)=O)C(=O)N[C@@H](CCCCN)C(=O)N[C@@H](CCCCN)C(=O)N[C@@H](CCC(N)=O)C(=O)N[C@@H](CCCNC(=N)N)C(=O)N[C@@H](CCC(=O)O)C(=O)N[C@@H](CCC(N)=O)C(=O)N[C@@H](C)C(=O)N[C@@H](CCC(=O)O)C(=O)N[C@H](C(=O)N[C@@H](CC(N)=O)C(=O)NC(C)(C)C(=O)N[C@@H](CCC(N)=O)C(=O)N[C@H](C(=O)N[C@@H](CC(C)C)C(=O)N[C@@H](C)C(=O)N[C@@H](CCC(N)=O)C(=O)N[C@H](C(N)=O)C(C)C)[C@@H](C)CC)[C@@H](C)O)[C@@H](C)CC)[C@@H](C)CC)C(C)C)C(C)C [compound 156] (Hexanoyl-VLSLD[dV]PIKLK([γGlu-C16 diacid])KILLEQEKQKKQREQAETN[Aib]QILAQV-NH2) | 8 | > 250 | 0.29 |
| CCCCCC(=O)N[C@H](C(=O)N[C@@H](CC(C)C)C(=O)N[C@@H](CO)C(=O)N[C@@H](CC(C)C)C(=O)N[C@@H](CC(=O)O)C(=O)N[C@@H](C(=O)N1CCC[C@H]1C(=O)N[C@H](C(=O)N[C@@H](CCCCN)C(=O)N[C@@H](CC(C)C)C(=O)N[C@@H](CCCCNC(=O)CC[C@H](NC(=O)CCCCCCCCCCCCCCC(=O)O)C(=O)O)C(=O)N[C@@H](CCCCN)C(=O)N[C@H](C(=O)N[C@@H](CC(C)C)C(=O)N[C@@H](CC(C)C)C(=O)N[C@@H](CCC(=O)O)C(=O)N[C@@H](CCC(N)=O)C(=O)N[C@@H](CCC(=O)O)C(=O)N[C@@H](CCCCN)C(=O)N[C@@H](CCC(N)=O)C(=O)N[C@@H](CCCCN)C(=O)N[C@@H](CCCCN)C(=O)N[C@@H](CCC(N)=O)C(=O)N[C@@H](CCCNC(=N)N)C(=O)N[C@@H](CCC(=O)O)C(=O)N[C@@H](CCC(N)=O)C(=O)N[C@@H](C)C(=O)N[C@@H](CCC(=O)O)C(=O)N[C@H](C(=O)N[C@@H](CC(N)=O)C(=O)NC1(C(=O)N[C@@H](CCC(N)=O)C(=O)N[C@H](C(=O)N[C@@H](CC(C)C)C(=O)N[C@@H](C)C(=O)N[C@@H](CCC(N)=O)C(=O)N[C@H](C(N)=O)C(C)C)[C@@H](C)CC)CCNCC1)[C@@H](C)O)[C@@H](C)CC)[C@@H](C)CC)C(C)C)C(C)C [compound 157] (Hexanoyl-VLSLD[dV]PIKLK([γGlu-C16 diacid])KILLEQEKQKKQREQAETN[Api]QILAQV-NH2) | 30 | > 250 | 0.32 |
| CC[C@H](C)[C@H](NC(=O)[C@H](CCC(N)=O)NC(=O)C1(NC(=O)[C@H](CC(N)=O)NC(=O)[C@@H](NC(=O)[C@H](CCC(=O)O)NC(=O)[C@H](C)NC(=O)[C@H](CCC(N)=O)NC(=O)[C@H](CCC(=O)O)NC(=O)[C@H](CCCNC(=N)N)NC(=O)[C@H](CCC(N)=O)NC(=O)[C@H](CCCCN)NC(=O)[C@H](CCCCN)NC(=O)[C@H](CCC(N)=O)NC(=O)[C@H](CCCCN)NC(=O)[C@H](CCC(=O)O)NC(=O)[C@H](CCC(N)=O)NC(=O)[C@H](CCC(=O)O)NC(=O)[C@H](CC(C)C)NC(=O)[C@H](CC(C)C)NC(=O)[C@@H](NC(=O)[C@H](CCCCN)NC(=O)[C@H](CCCCNC(=O)CC[C@H](NC(=O)CCCCCCCCCCCCCCC(=O)O)C(=O)O)NC(=O)[C@H](CC(C)C)NC(=O)[C@H](CCCCN)NC(=O)[C@@H](NC(=O)[C@@H]2CCCN2C(=O)[C@H](NC(=O)[C@H](CC(=O)O)NC(=O)[C@H](CC(C)C)NC(=O)[C@H](CO)NC(=O)[C@H](CC(C)C)NC(=O)[C@@H](NC)C(C)C)C(C)C)[C@@H](C)CC)[C@@H](C)CC)[C@@H](C)O)CCNCC1)C(=O)N[C@@H](CC(C)C)C(=O)N[C@@H](C)C(=O)N[C@@H](CCC(N)=O)C(=O)N[C@H](C(N)=O)C(C)C [compound 160] (H-[NMeV]LSLD[dV]PIKLK([γGlu-C16 diacid])KILLEQEKQKKQREQAETN[Api]QILAQV-NH2) | 2 | > 250 | 2.08 |

Second part, the molecule after the results:

| Emax (% I) [1] [% I] | EC50 [1] [nM] | EC50 [2] [nM] | SMILES |
| --- | --- | --- | --- |
| 4 | > 250 | 2.97 | CC[C@H](C)[C@H](NC(=O)[C@H](CCC(N)=O)NC(=O)C(C)(C)NC(=O)[C@H](CC(N)=O)NC(=O)[C@@H](NC(=O)[C@H](CCC(=O)O)NC(=O)[C@H](C)NC(=O)[C@H](CCC(N)=O)NC(=O)[C@H](CCC(=O)O)NC(=O)[C@H](CCCNC(=N)N)NC(=O)[C@H](CCC(N)=O)NC(=O)[C@H](CCCCN)NC(=O)[C@H](CCCCN)NC(=O)[C@H](CCC(N)=O)NC(=O)[C@H](CCCCN)NC(=O)[C@H](CCC(=O)O)NC(=O)[C@H](CCC(N)=O)NC(=O)[C@H](CCC(=O)O)NC(=O)[C@H](CC(C)C)NC(=O)[C@H](CC(C)C)NC(=O)[C@@H](NC(=O)[C@H](CCCCN)NC(=O)[C@H](CCCCNC(=O)CC[C@H](NC(=O)CCCCCCCCCCCCCCC(=O)O)C(=O)O)NC(=O)[C@H](CC(C)C)NC(=O)[C@H](CCCCN)NC(=O)[C@@H](NC(=O)[C@@H]1CCCN1C(=O)[C@H](NC(=O)[C@H](CC(=O)O)NC(=O)[C@H](CC(C)C)NC(=O)[C@H](CO)NC(=O)[C@H](CC(C)C)NC(=O)[C@@H](NC)C(C)C)C(C)C)[C@@H](C)CC)[C@@H](C)CC)[C@@H](C)O)C(=O)N[C@@H](CC(C)C)C(=O)N[C@@H](C)C(=O)N[C@@H](CCC(N)=O)C(=O)N[C@H](C(N)=O)C(C)C [compound 159] (H-[NMeV]LSLD[dV]PIKLK([γGlu-C16 diacid])KILLEQEKQKKQREQAETN[Aib]QILAQV-NH2) |
| 0 | > 250 | 0.49 | CC[C@H](C)[C@H](NC(C)=O)C(=O)N[C@H](C(=O)N[C@@H](CC(C)C)C(=O)N[C@@H](CO)C(=O)N[C@@H](CC(C)C)C(=O)N[C@@H](CC(=O)O)C(=O)N[C@@H](C(=O)N1CCC[C@H]1C(=O)N[C@H](C(=O)N[C@@H](CCCCN)C(=O)N[C@@H](CC(C)C)C(=O)N[C@@H](CCCCNC(=O)CC[C@H](NC(=O)CCCCCCCCCCCCCCC(=O)O)C(=O)O)C(=O)N[C@@H](CCCCN)C(=O)N[C@H](C(=O)N[C@@H](CC(C)C)C(=O)N[C@@H](CC(C)C)C(=O)N[C@@H](CCC(=O)O)C(=O)N[C@@H](CCC(N)=O)C(=O)N[C@@H](CCC(=O)O)C(=O)N[C@@H](CCCCN)C(=O)N[C@@H](CCC(N)=O)C(=O)N[C@@H](CCCCN)C(=O)NC(C)(C)C(=O)N[C@@H](CCC(N)=O)C(=O)N[C@@H](CCCNC(=N)N)C(=O)N[C@@H](CCC(=O)O)C(=O)N[C@@H](CCC(N)=O)C(=O)N[C@@H](C)C(=O)N[C@@H](CCC(=O)O)C(=O)N[C@H](C(=O)N[C@@H](CC(N)=O)C(=O)NC(C)(C)C(=O)N[C@@H](CCC(N)=O)C(=O)N[C@H](C(=O)N[C@@H](CC(C)C)C(=O)N[C@@H](C)C(=O)N[C@@H](CCC(N)=O)C(=O)N[C@H](C(N)=O)C(C)C)[C@@H](C)CC)[C@@H](C)O)[C@@H](C)CC)[C@@H](C)CC)C(C)C)C(C)C [compound 162] (Ac-IVLSLD[dV]PIKLK([γGlu-C16 diacid])KILLEQEKQK[Aib]QREQAETN[Aib]QILAQV-NH2) |
